# Measurements published in paper PMC9948168, “Vanillin-Based Indolin-2-one Derivative Bearing a Pyridyl Moiety as a Promising Anti-Breast Cancer Agent via Anti-Estrogenic Activity” (ACS Omega, 2023).
# Where two headings read alike, the source gives them in different places.
# Key:
# Type in all cases: cell-based, human
# MCF-7 cells [1] = assay: iCELLigence real-time cell analysis; details: for viability at 2 µM / viability at 5 µM / viability at 10 µM / viability at 20 µM / viability at 50 µM / viability at 100 µM / IC50: MCF-7; for viability at 2 µM / viability at 5 µM / viability at 10 µM / viability at 20 µM / viability at 50 µM / viability at 100 µM: relative to control, read-out: cell viability (% ± SEM)
# Protocol: (§1) Therefore, compound 6j was applied in serial doses (2, 5, 10, 20, 50, and 100 μM) to MCF-7 cells and parallel to MCF-12A cells to determine the selectivity and safety. The treatments were performed 24 h after seeding the cells on system-specific biosensor-based plates. A total of 120 h of analyses were monitored, with cell viability measurements taken every 15 min. […] In addition, the viability percentage values for each dose in these periods were calculated and are summarized in Table 3 for MCF-7 and Table 4 for MCF-12A. […] In these treatments, cells were not killed dramatically after adding the highest two doses of 6j (100 and 50 μM); instead, they entered the stationary phase.
# (§2) MCF-7 (Cat. no. HTB-22) (human estrogen receptor-positive breast cancer) and MCF-12A (Cat. no. CRL-10782) (human non-tumorigenic mammary epithelial) cell lines were obtained from the American Type Culture Collection (ATCC, Rockville, Maryland, USA). MCF-7 cells were maintained in Dulbecco’s modified Eagle’s medium (DMEM) (Biological Industries, Haemek, Israel) supplemented with 10% heat-inactivated fetal bovine serum (FBS) (Biowest, Nuaillé, France), 2 mM L-glutamine (Biological Industries, Haemek, Israel), 100 U/mL penicillin and 100 μg/mL streptomycin (Gibco, Waltham, MA, USA), and 2.5 μg/mL plasmocin (Invivogen, Toulouse, France) at 37 °C in a 5% CO2 humidified incubator. MCF-12A cells were cultured in a DMEM/F-12 Nutrient Mixture (Ham) (DMEM/F12 1:1 with HEPES and L-glutamine) (Gibco, Waltham, MA, USA) with 10% heat-inactivated FBS, 100 U/mL penicillin, 100 μg/mL streptomycin, and 10 μg/mL insulin (Humulin R, Lilly, Indianapolis, USA), 20 ng/mL epidermal growth factor (Abcam, Cambridge, UK), […] hydrocortisone (Dekort, Deva Ilac, Istanbul, Turkey), and 2.5 μg/mL plasmocin in a humidified atmosphere of 5% CO2 at 37 °C. The cells were routinely cultured in cell culture flasks and checked regularly under an inverted microscope. Cells reaching 80% confluency were passaged by treatment with 0.25% trypsin–EDTA. Total cell numbers were counted by the trypan blue dye exclusion method using a hemocytometer prior to the experiments.
# (§3) The iCELLigence real-time cell analysis system was used to conduct a real-time and label-free examination of the activities of compound 6j on cells as we previously described.[62] In brief, following a background measurement with 200 μL of complete medium on iCELLigence E-plate L8, 100 μL of MCF-7 or MCF-12A cells was seeded at a density of 5.0 × 10^3 per well. During the 120 h monitoring, the system took impedance measurements via biosensors every 15 min. At the 24th h of incubation, the cells were treated with increasing concentrations of the 6j compound (2, 5, 10, 20, 50, and 100 μM) in duplicate. For cell culture experiments, compound 6j was dissolved in DMSO (Sigma, St. Louis, USA) at a stock concentration of 20 mM. For treatments, dilutions were prepared from 20 mM stock with a cell growth medium, with a final DMSO concentration of 0.1%. The medium containing 0.1% DMSO was also used as a negative control. […] Data were recorded by the iCELLigence software for 120 h and analyzed at the end of the study.
# [2] = iCELLigence real-time cell analysis; details: human, MCF-12A, relative to control, read-out: cell viability (% ± SEM)
# Protocol: as §1, §2, §3
# MCF-12A cells [3] = assay: iCELLigence real-time cell analysis; details: for IC50: Homo sapiens, MCF-12A
# Protocol: as §1, §2, §3
# MCF-7 cells [4] = assay: Morphological assessment under inverted microscope; details: 50 and 100 μM; 48 h after treatment
# Protocol: (§4) In addition to the viability analyses, morphological evaluations were performed after treating the cells with different doses of 6j (5, 10, 20, 50, and 100 μM) to better understand what was going on in the plate wells. The cells were photographed under an inverted microscope 48 h after 6j treatment. […] The cell morphology has not deteriorated, and the membrane structures were preserved in a healthy way in the 6j-applied cells.
# (§5) Morphological studies were performed to observe the effects of 6j on MCF-7 and MCF-12A cells, as previously reported.[63] In brief, 5 × 10^5 cells were seeded into six-well plates and incubated for 24 h. Afterward, increasing doses of compound 6j (5, 10, 20, 50, and 100 μM) were applied to the cells. The medium containing 0.1% DMSO was used as the untreated control. 48 h after treatments, the cells were photographed under an inverted microscope, Leica DM IL LED with a DFC-290 camera (Leica, Wetzlar, Germany).
# MCF-12A cells [5] = assay: Morphological assessment under inverted microscope; details: 50 and 100 μM; 48 h after treatment
# Protocol: as §4, §5
structure (smiles),measurement,setting,value
COc1cc(C=C2C(=O)Nc3ccc(Cl)cc32)ccc1OCc1ccccn1 (mixture of isomers) [6j],inhibition of MCF-7 viability,"MCF-7 cells [1]; 20 μM, compared with same concentration of tamoxifen",30%
same,growth of MCF-7 cells,"MCF-7 cells [1]; 100 and 50 μM, all time points",completely inhibited the growth
same,inhibition at 10 µM,"MCF-7 cells [1]; Homo sapiens, MCF7, 10 μM, from growth curves",25%
same,inhibition at 20 µM,"MCF-7 cells [1]; Homo sapiens, MCF7, 20 μM, all time points, from growth curves",~50%
same,viability at 2 µM,"MCF-7 cells [1]; Homo sapiens, MCF7, 24 h",91.38 ± 0.01%
same,viability at 2 µM,"MCF-7 cells [1]; Homo sapiens, MCF7, 48 h",91.38 ± 0.01%
same,viability at 2 µM,"MCF-7 cells [1]; Homo sapiens, MCF7, 72 h",91.38 ± 0.01%
same,viability at 2 µM,"MCF-7 cells [1]; Homo sapiens, MCF7, 96 h",90.67 ± 0.01%
same,viability at 5 µM,"MCF-7 cells [1]; Homo sapiens, MCF7, 24 h",84.83 ± 0.01%
same,viability at 5 µM,"MCF-7 cells [1]; Homo sapiens, MCF7, 48 h",83.01 ± 0.02%
same,viability at 5 µM,"MCF-7 cells [1]; Homo sapiens, MCF7, 72 h",83.01 ± 0.02%
same,viability at 5 µM,"MCF-7 cells [1]; Homo sapiens, MCF7, 96 h",82.54 ± 0.01%
same,viability at 10 µM,"MCF-7 cells [1]; Homo sapiens, MCF7, 10 μM, 24 h",80 ± 0.01%
same,viability at 10 µM,"MCF-7 cells [1]; Homo sapiens, MCF7, 10 μM, 48 h",76.59 ± 0.01%
same,viability at 10 µM,"MCF-7 cells [1]; Homo sapiens, MCF7, 10 μM, 72 h",76.59 ± 0.01%
same,viability at 10 µM,"MCF-7 cells [1]; Homo sapiens, MCF7, 10 μM, 96 h",74.2%
same,viability at 20 µM,"MCF-7 cells [1]; Homo sapiens, MCF7, 20 μM, 24 h",70.25 ± 0.02%
same,viability at 20 µM,"MCF-7 cells [1]; Homo sapiens, MCF7, 20 μM, 48 h",64.29 ± 0.02%
same,viability at 20 µM,"MCF-7 cells [1]; Homo sapiens, MCF7, 20 μM, 72 h",51.2 ± 0.01%
same,viability at 20 µM,"MCF-7 cells [1]; Homo sapiens, MCF7, 20 μM, 96 h",40.5%
same,viability at 50 µM,"MCF-7 cells [1]; Homo sapiens, MCF7, 24 h",62.7%
same,viability at 50 µM,"MCF-7 cells [1]; Homo sapiens, MCF7, 48 h",43.4%
same,viability at 50 µM,"MCF-7 cells [1]; Homo sapiens, MCF7, 72 h",28%
same,viability at 50 µM,"MCF-7 cells [1]; Homo sapiens, MCF7, 96 h",18.4%
same,viability at 100 µM,"MCF-7 cells [1]; Homo sapiens, MCF7, 24 h",57.46 ± 0.02%
same,viability at 100 µM,"MCF-7 cells [1]; Homo sapiens, MCF7, 48 h",33.25 ± 0.02%
same,viability at 100 µM,"MCF-7 cells [1]; Homo sapiens, MCF7, 72 h",20.25 ± 0.01%
same,viability at 100 µM,"MCF-7 cells [1]; Homo sapiens, MCF7, 96 h",13.4%
same,IC50,"MCF-7 cells [1]; Homo sapiens, MCF7, 24 h after treatment",121 µM
same,IC50,"MCF-7 cells [1]; Homo sapiens, MCF7, 48 h after treatment",16.2 µM
same,IC50,"MCF-7 cells [1]; Homo sapiens, MCF7, 72 h after treatment",17 µM
same,IC50,"MCF-7 cells [1]; Homo sapiens, MCF7, 96 h after treatment",16.1 µM
same,"viability at 48 h, 2 µM","[2]; MCF-12A cells (non-tumorigenic mammary epithelial), 2 μM, 48 h",97.43 ± 0.02%
same,"viability at 72 h, 2 µM","[2]; MCF-12A cells (non-tumorigenic mammary epithelial), 2 μM, 72 h",97.43 ± 0.02%
same,"viability at 96 h, 2 µM","[2]; MCF-12A cells (non-tumorigenic mammary epithelial), 2 μM, 96 h",97.43 ± 0.02%
same,"viability at 72 h, 5 µM","[2]; MCF-12A cells (non-tumorigenic mammary epithelial), 5 μM, 72 h",92.74 ± 0.01%
same,"viability at 96 h, 5 µM","[2]; MCF-12A cells (non-tumorigenic mammary epithelial), 5 μM, 96 h",92.2%
same,"viability at 72 h, 10 µM","[2]; MCF-12A cells (non-tumorigenic mammary epithelial), 10 μM, 72 h",87.93 ± 0.02%
same,"viability at 96 h, 10 µM","[2]; MCF-12A cells (non-tumorigenic mammary epithelial), 10 μM, 96 h",87.93 ± 0.02%
same,"viability at 72 h, 20 µM","[2]; MCF-12A cells (non-tumorigenic mammary epithelial), 20 μM, 72 h",80.57 ± 0.01%
same,"viability at 96 h, 20 µM","[2]; MCF-12A cells (non-tumorigenic mammary epithelial), 20 μM, 96 h",80.57 ± 0.01%
same,"viability at 72 h, 50 µM","[2]; MCF-12A cells (non-tumorigenic mammary epithelial), 50 μM, 72 h",72.7 ± 0.01%
same,"viability at 96 h, 50 µM","[2]; MCF-12A cells (non-tumorigenic mammary epithelial), 50 μM, 96 h",72.54 ± 0.01%
same,"viability at 72 h, 100 µM","[2]; MCF-12A cells (non-tumorigenic mammary epithelial), 100 μM, 72 h",62.63 ± 0.01%
same,"viability at 96 h, 100 µM","[2]; MCF-12A cells (non-tumorigenic mammary epithelial), 100 μM, 96 h",61.3%
same,"viability at 24 h, 2 µM","[2]; MCF-12A cells, 2 μM, 24 h",98.7%
same,"viability at 24 h, 5 µM","[2]; MCF-12A cells, 5 μM, 24 h",99.06 ± 0.01%
same,"viability at 48 h, 5 µM","[2]; MCF-12A cells, 5 μM, 48 h",93.73 ± 0.02%
same,"viability at 24 h, 10 µM","[2]; MCF-12A cells, 10 μM, 24 h",97.22 ± 0.01%
same,"viability at 48 h, 10 µM","[2]; MCF-12A cells, 10 μM, 48 h",88.48 ± 0.02%
same,"viability at 24 h, 20 µM","[2]; MCF-12A cells, 20 μM, 24 h",93.6%
same,"viability at 48 h, 20 µM","[2]; MCF-12A cells, 20 μM, 48 h",81.96 ± 0.01%
same,"viability at 24 h, 50 µM","[2]; MCF-12A cells, 50 μM, 24 h",90.25 ± 0.01%
same,"viability at 48 h, 50 µM","[2]; MCF-12A cells, 50 μM, 48 h",77.81 ± 0.01%
same,"viability at 24 h, 100 µM","[2]; MCF-12A cells, 100 μM, 24 h",82%
same,"viability at 48 h, 100 µM","[2]; MCF-12A cells, 100 μM, 48 h",67.3%
same,IC50,MCF-12A cells [3]; 24 h after treatment,506 µM
same,IC50,MCF-12A cells [3]; 48 h after treatment,81.9 µM
same,IC50,MCF-12A cells [3]; 72 h after treatment,312 µM
same,IC50,MCF-12A cells [3]; 96 h after treatment,207 µM
same,safer profile MCF-12A versus MCF-7,"MCF-12A cells [3]; at the 48th h, based on IC50 values",5 times
same,effects on MCF-12A healthy breast cells,"MCF-12A cells [3]; first 24 h of treatment, any dose (2-100 μM)",no effects
same,MCF-7 cell morphology / proliferation,MCF-7 cells [4],remained stable by stopping cell division without being toxic
same,MCF-12A cell morphology / proliferation,MCF-12A cells [5],continued to proliferate
